Measurements taken from patent US20250270180A1, “MEK INHIBITORS AND THERAPEUTIC USES THEREOF” (Immuneering Corporation, priority 2020, published 2025).

Test system: A549 pERK
Assay: A549-pERK, 2 h (quantitative Western, Jess)
Assay type: cell-based
Conditions: Homo sapiens, phospho:total ratio normalized to DMSO control
Procedure: A549 or […] cells were treated in duplicate for two hours with compounds at varying concentrations. After two hours, the cells were lysed, snap frozen, and stored at −80° C. After storage, the lysate was quantified with the Bradford assay. Before the lysates were prepared to run on the Jess, the lysates were diluted to 1 mg/mL for pERK analysis and 1.5 mg/mL pMEK analysis using quantitative Western blotting. ERK and MEK phosphorylation levels were estimated by taking the ratio of phospho-protein to total protein and normalizing to the DMSO control. The results of this study are described in Tables 14-16.

SMILES | activity at 0.01 µM (A549, 2 h, 10 nM) | activity at 10 µM (A549, 2 h) | activity at 0.01 µM (A549, 10 nM)
CNS(=O)(=O)Nc1cccc(Cc2c(CNCC3CC3)c3ccc(OC(=O)N(C)C)cc3oc2=O)c1F [Compound 26] | 94.2% | – | –
CNS(=O)(=O)Nc1cccc(Cc2c(CNCc3ccncc3)c3ccc(OC(=O)N(C)C)cc3oc2=O)c1F [Compound 29] | 96% | – | –
CNS(=O)(=O)Nc1cccc(Cc2c(CNc3ccccc3)c3ccc(OC(=O)N(C)C)cc3oc2=O)c1F [Compound 30] | 54.3% | – | –
CNS(=O)(=O)Nc1cccc(Cc2c(CNc3ccn[nH]3)c3ccc(OC(=O)N(C)C)cc3oc2=O)c1F [Compound 31] | 66.7% | – | –
CNS(=O)(=O)Nc1cccc(Cc2c(CNCc3ccco3)c3ccc(OC(=O)N(C)C)cc3oc2=O)c1F [Compound 56] | 92.9% | – | –
CNS(=O)(=O)Nc1cccc(Cc2c(CNCC(=O)N(C)C)c3ccc(OC(=O)N(C)C)cc3oc2=O)c1F [Compound 57] | 106% | 7.33% | –
CNS(=O)(=O)Nc1cccc(Cc2c(CNCCN(C)C)c3ccc(OC(=O)N(C)C)cc3oc2=O)c1F [Compound 58] | 98.7% | – | –
CNS(=O)(=O)Nc1cccc(Cc2c(CNCc3cccc(C(F)(F)F)c3)c3ccc(OC(=O)N(C)C)cc3oc2=O)c1F [Compound 59] | 105% | – | –
CNS(=O)(=O)Nc1cccc(Cc2c(CN3CCN(C(C)C)CC3)c3ccc(OC(=O)N(C)C)cc3oc2=O)c1F [Compound 62] | 73% | – | –
CNS(=O)(=O)Nc1cccc(Cc2c(CNC(C)c3ccccc3)c3ccc(OC(=O)N(C)C)cc3oc2=O)c1F (stereo not drawn) [Compound 63] | 88% | – | –
CNS(=O)(=O)Nc1cccc(Cc2c(CN3CCN(C4CC4)CC3)c3ccc(OC(=O)N(C)C)cc3oc2=O)c1F [Compound 64] | 73% | – | –
CNS(=O)(=O)Nc1cccc(Cc2c(CN3CCN(C(=O)c4ccccc4)CC3)c3ccc(OC(=O)N(C)C)cc3oc2=O)c1F [Compound 65] | 100% | – | –
CNS(=O)(=O)Nc1cccc(Cc2c(CNCCC(F)(F)F)c3ccc(OC(=O)N(C)C)cc3oc2=O)c1F [Compound 66] | 104% | – | –
CNS(=O)(=O)Nc1cccc(Cc2c(CN3CCN(S(C)(=O)=O)CC3)c3ccc(OC(=O)N(C)C)cc3oc2=O)c1F [Compound 68] | 68.9% | – | –
CCN1CCN(Cc2c(Cc3cccc(NS(=O)(=O)NC)c3F)c(=O)oc3cc(OC(=O)N(C)C)ccc23)CC1=O [Compound 69] | 101% | – | –
CNS(=O)(=O)Nc1cccc(Cc2c(CNCCCCO)c3ccc(OC(=O)N(C)C)cc3oc2=O)c1F [Compound 71] | 99.4% | – | –
C#CCN(C)Cc1c(Cc2cccc(NS(=O)(=O)NC)c2F)c(=O)oc2cc(OC(=O)N(C)C)ccc12 [Compound 76] | 62.1% | – | –
CNS(=O)(=O)Nc1cccc(Cc2c(CNc3ccn(C)n3)c3ccc(OC(=O)N(C)C)cc3oc2=O)c1F [Compound 89] | 83.7% | – | –
CNS(=O)(=O)Nc1cccc(Cc2c(CNc3cn[nH]c3)c3ccc(OC(=O)N(C)C)cc3oc2=O)c1F [Compound 92] | 93.8% | – | –

SMILES | activity at 0.01 µM (A549, 2 h, 10 nM) | activity at 10 µM (A549, 2 h) | activity at 0.01 µM (A549, 10 nM)
CNS(=O)(=O)Nc1cccc(Cc2c(CNc3nccs3)c3ccc(OC(=O)N(C)C)cc3oc2=O)c1F [Compound 94] | 93.5% | – | –
CNS(=O)(=O)Nc1cccc(Cc2c(CN(C)c3cccc(Cl)c3)c3ccc(OC(=O)N(C)C)cc3oc2=O)c1F [Compound 95] | 80.2% | – | –
CNS(=O)(=O)Nc1cccc(Cc2c(CNc3ccnn3C)c3ccc(OC(=O)N(C)C)cc3oc2=O)c1F [Compound 96] | 102% | – | –
CNS(=O)(=O)Nc1cccc(Cc2c(CN(C)c3ccccc3Cl)c3ccc(OC(=O)N(C)C)cc3oc2=O)c1F [Compound 99] | 98.9% | – | –
CNS(=O)(=O)Nc1nccc(Cc2c(CN3CCNCC3)c3ccc(Oc4ncccn4)cc3oc2=O)c1F [Compound 104] | – | – | 77.3%
CNS(=O)(=O)Nc1cccc(Cc2c(CNC(N)=O)c3ccc(OC(=O)N(C)C)cc3oc2=O)c1F [Compound 105] | – | 7.39% | –
CCS(=O)(=O)Nc1cccc(Cc2c(CN(C)C)c3ccc(OC(=O)N(C)C)cc3oc2=O)c1F [Compound 120] | 77.2% | – | –
CNS(=O)(=O)Nc1nccc(Cc2c(CN(C)C)c3ccc(OC(=O)N(C)C)cc3oc2=O)c1F [Compound 124] | 94.6% | – | –
CNS(=O)(=O)Nc1cccc(Cc2c(CN(C)C)c3ccc(OC(=O)N4CCN(C)CC4)cc3oc2=O)c1F [Compound 127] | 110% | – | –
CNS(=O)(=O)Nc1cccc(Cc2c(CN(C)C)c3ccc(Oc4ncccn4)cc3oc2=O)c1F [Compound 129] | – | – | 92.2%
CNS(=O)(=O)Nc1cccc(Cc2c(CNCC(=O)O)c3cc(Cl)c(OC(=O)N(C)C)cc3oc2=O)c1F [Compound 133] | 88.1% | 23.4% | –
CNS(=O)(=O)Nc1cccc(Cc2c(CN3CC4CC3CN4)c3ccc(OC(=O)N(C)C)cc3oc2=O)c1F (stereo not drawn) [Compound 138] | 96.9% | – | –
CNS(=O)(=O)Nc1cccc(Cc2c(CN3CC(C)C3)c3ccc(OC(=O)N(C)C)cc3oc2=O)c1F [Compound 142] | 94.6% | – | –
CNS(=O)(=O)Nc1cccc(Cc2c(CN3CC(C)(C)C3)c3ccc(OC(=O)N(C)C)cc3oc2=O)c1F [Compound 143] | 104% | – | –
CNS(=O)(=O)Nc1cccc(Cc2c(CN3CC(Cl)C3)c3ccc(OC(=O)N(C)C)cc3oc2=O)c1F [Compound 145] | 104% | – | –
CNS(=O)(=O)Nc1nccc(Cc2c(CN3CC(F)(F)C3)c3ccc(OC(=O)N(C)C)cc3oc2=O)c1F [Compound 149] | 69.1% | – | –
CNS(=O)(=O)Nc1cccc(Cc2c(CN3CC4(COC4)C3)c3ccc(OC(=O)N(C)C)cc3oc2=O)c1F [Compound 152] | 70.5% | – | –
CNS(=O)(=O)Nc1cccc(Cc2c(CN3CC(N(C)C)C3)c3ccc(OC(=O)N(C)C)cc3oc2=O)c1F [Compound 154] | 64% | – | –
CN(C)C(=O)Oc1ccc2c(CN3CCC3)c(Cc3ccnc(NS(=O)(=O)C4CC4)c3F)c(=O)oc2c1 [Compound 155] | 84.9% | – | –

SMILES | activity at 0.01 µM (A549, 2 h, 10 nM) | activity at 10 µM (A549, 2 h) | activity at 0.01 µM (A549, 10 nM)
CNS(=O)(=O)Nc1cccc(Cc2c(CN3CCNC(=O)CC3)c3ccc(OC(=O)N(C)C)cc3oc2=O)c1F [Compound 158] | 80% | – | –
CNS(=O)(=O)Nc1cccc(Cc2c(CN3CCC4(CN(C)C4)C3)c3ccc(OC(=O)N(C)C)cc3oc2=O)c1F [Compound 159] | 82.7% | – | –
CNC1CN(Cc2c(Cc3cccc(NS(=O)(=O)NC)c3F)c(=O)oc3cc(OC(=O)N(C)C)ccc23)C1 [Compound 164] | 102% | – | –
CNS(=O)(=O)Nc1cccc(Cc2c(CN3CC(N)C3)c3ccc(OC(=O)N(C)C)cc3oc2=O)c1F [Compound 165] | 104% | – | –
CCN(C)Cc1c(Cc2cccc(NS(=O)(=O)CC)c2F)c(=O)oc2cc(OC(=O)N(C)C)c(Cl)cc12 [Compound 166] | 60.9% | – | –
CNS(=O)(=O)Nc1cccc(Cc2c(CN3CC(C#N)C3)c3ccc(OC(=O)N(C)C)cc3oc2=O)c1F [Compound 172] | 111% | – | –
CNS(=O)(=O)Nc1cccc(Cc2c(CN3CC(C(N)=O)C3)c3ccc(OC(=O)N(C)C)cc3oc2=O)c1F [Compound 173] | 97.7% | – | –
CNS(=O)(=O)Nc1cccc(Cc2c(CO)c3ccc(OC(=O)N(C)C)cc3oc2=O)c1F [Compound 180] | 75% | – | –
CNS(=O)(=O)Nc1cccc(Cc2c(CN3CCOCC3=O)c3ccc(OC(=O)N(C)C)cc3oc2=O)c1F [Compound 181] | 100% | 22.2% | –
CNS(=O)(=O)Nc1cccc(Cc2c(CCNCC3CC3)c3ccc(OC(=O)N(C)C)cc3oc2=O)c1F [Compound 186] | 80.1% | 0.74% | –
CNS(=O)(=O)Nc1cccc(Cc2c(CNc3ccc(OC)nc3)c3ccc(OC(=O)N(C)C)cc3oc2=O)c1F [Compound 193] | 90.7% | – | –
CNS(=O)(=O)Nc1cccc(Cc2c(CC(=O)N3CCN(C)CC3)c3ccc(OC(=O)N(C)C)cc3oc2=O)c1F [Compound 195] | 113% | – | –
CNS(=O)(=O)Nc1cccc(Cc2c(CC(=O)N(C)C)c3ccc(OC(=O)N(C)C)cc3oc2=O)c1F [Compound 196] | 106% | – | –
CNS(=O)(=O)Nc1cccc(Cc2c(CC(=O)N(C)CC#N)c3ccc(OC(=O)N(C)C)cc3oc2=O)c1F [Compound 198] | 109% | – | –
CNS(=O)(=O)Nc1cccc(Cc2c(CC(=O)Nc3ccon3)c3ccc(OC(=O)N(C)C)cc3oc2=O)c1F [Compound 201] | 119% | – | –
CNS(=O)(=O)Nc1cccc(Cc2c(CC(=O)Nc3ccn[nH]3)c3ccc(OC(=O)N(C)C)cc3oc2=O)c1F [Compound 202] | 119% | – | –
CNS(=O)(=O)Nc1cccc(Cc2c(CN(C)C)c3ccc(OC(=S)N(C)C)cc3oc2=O)c1F [Compound 204] | – | – | 83.4%
CCC(=O)NCc1c(Cc2cccc(NS(=O)(=O)NC)c2F)c(=O)oc2cc(OC(=O)N(C)C)ccc12 [Compound 207] | 97.4% | 11.3% | –
CNS(=O)(=O)Nc1cccc(Cc2c(CNC(=O)C(C)C)c3ccc(OC(=O)N(C)C)cc3oc2=O)c1F [Compound 208] | 105% | 23.6% | –
